Laboratory results from PubChem BioAssay AID2503 (Sanford-Burnham Center for Chemical Genomics, 2010).
Active and inactive are the calls of the source. The rule behind the calls is not given here.

Tested on: MCF-7/NOD2 cells, MDP-induced IL-8 secretion
Assay: NOD2 pathway IL-8 secretion inhibitors – MCF-7/NOD2 cells, MDP stimulus, set 2, SAR follow-up (AID 2503)

Structure (SMILES) | IC50
COc1ccc(C(=O)Cn2c(N)nc3ccccc32)cc1 | > 25 µM (inactive)
CCCn1c(SCC(=O)Nc2nc3c(s2)CCCC3)nc2c1c(=O)n(C)c(=O)n2C | > 25 µM (inactive)
Oc1ccc(N=Nc2ccccc2C(F)(F)F)c2cccnc12 | > 25 µM (inactive)
CC(C)n1c(SCCCc2ccccc2)nc2c1c(=O)[nH]c(=O)n2C | > 25 µM (inactive)
C/C=C/Cn1c(SCc2ccccc2)nc2c1c(=O)[nH]c(=O)n2C | > 25 µM (inactive)
CCCCn1c(SCC(=O)Nc2nnc(CC)s2)nc2c1c(=O)n(C)c(=O)n2C | > 25 µM (inactive)
CCCCn1c(SCC(=O)c2ccccc2)nc2c1c(=O)[nH]c(=O)n2C | > 25 µM (inactive)
COCCn1c(SCCCc2ccccc2)nc2c1c(=O)[nH]c(=O)n2C | > 25 µM (inactive)
C=CCn1c(SCCCc2ccccc2)nc2c1c(=O)[nH]c(=O)n2C | > 25 µM (inactive)
Cc1ccc(S(=O)(=O)n2c(=S)[nH]c3cc(C)ccc32)cc1 | > 25 µM (inactive)
Nc1nc2ccccc2n1Cc1ccc(Cl)cc1 | 4.59 µM
Cc1ccc(S(=O)(=O)n2c(N)nc3ccccc32)cc1 | 17.3 µM
C/C(Cl)=C\Cn1c(NCCc2ccccc2)nc2c1c(=O)n(C)c(=O)n2C | > 25 µM (inactive)
Cn1c(=O)[nH]c(=O)c2c1nc([N+](=O)[O-])n2Cc1ccccc1 | 1.31 µM
C/C=C/Cn1c(SCCCc2ccccc2)nc2c1c(=O)[nH]c(=O)n2C | > 25 µM (inactive)
C/C=C/Cn1c(SCc2ccc(Cl)cc2)nc2c1c(=O)[nH]c(=O)n2C | > 25 µM (inactive)
CCCCCn1c(SCCc2ccccc2)nc2c1c(=O)[nH]c(=O)n2C | > 25 µM (inactive)
CCCn1c(SCCc2ccccc2)nc2c1c(=O)[nH]c(=O)n2C | > 25 µM (inactive)
CCCCn1c(CN2CCN(c3cccc(Cl)c3)CC2)nc2c1c(=O)n(C)c(=O)n2C | > 25 µM (inactive)
Nc1nc2ccccc2n1CCOc1ccc(Cl)cc1 | > 25 µM (inactive)
CC(C)Sc1nc2c(c(=O)[nH]c(=O)n2C)n1Cc1ccccc1 | > 25 µM (inactive)
O=C(Nc1nc2ccccc2n1Cc1ccc(Cl)cc1)c1ccco1 | > 25 µM (inactive)
CCC(=O)Nc1nc2ccccc2n1Cc1ccc(Cl)cc1 | 13.2 µM
